Data on eight compounds can be found in patent US20240425523A1, “Compounds for the Degradation of EGFR Kinase” (Beigene Switzerland GMBH, priority 2023, published 2024).

Holding throughout (type): cell-based
Assay [1] deals with p-EGFR Del19/C797S (H1975-clone #23 cells) (Homo sapiens, UniProt P00533). The assay is described as follows: Cell p-EGFR inhibition assay, HTRF, H1975-clone#23 (DEL19/C797S) cells. The following applies: 16 h treatment; for Imax (%): maximum percentage of pEGFR inhibition; for IC50: pEGFR inhibition. The gist of the method: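 Phospho-EGFR read by overnight HTRF on lysates, normalized to DMSO-treated high control; IC50, Hill slope and Imax fitted. Compounds were applied for 16 h (10 uM top, 5-fold steps, 8 doses) to an H1975 single clone carrying only exogenous Del19/C797S EGFR after sgRNA knockout of endogenous copies.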
For orientation: Time-resolved FRET reads energy transfer from a long-lived donor to a nearby acceptor.

Assay [2] has as its target T1, EGFR L858R (BaF3-L858R cells) (Homo sapiens, UniProt P00533, L858R).
T1 construct: host or cells: BaF3
The experiment in a line: Cell degradation of EGFR, HTRF assay, BaF3-L858R cells. The following applies: 16 h treatment; for DC50: EGFR degradation; for Dmax: maximum percentage of degradation. In outline: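 BaF3-L858R cells treated 16 h at 37° C, 5% CO2 with compound (top 10 uM final, 5-fold, 8 doses, 0.1% DMSO). DC50 from four-parameter fit; Dmax is maximum percent degradation.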

Assay [3] addresses T2, p-EGFR L858R (BaF3-L858R cells) (Homo sapiens, UniProt P00533, L858R).
T2 construct: host or cells: BaF3
The assay is described as follows: Cell p-EGFR inhibition assay, HTRF, BaF3-L858R cells. The following applies: 16 h treatment; for Imax (%): maximum percentage of pEGFR inhibition; for IC50: pEGFR inhibition. In outline:
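BaF3-L858R cells treated 16 h at 37 °C, 5% CO2 with compound from 10 uM top, 5-fold dilutions, 8 doses, in 0.1% DMSO medium. Lysates read overnight by HTRF p-EGFR antibodies; IC50 fitted to four-parameter curve against DMSO high control.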

In assay [4] the target is T3, EGFR-L858R/C797S (H1975-clone #8 cells) (Homo sapiens, UniProt P00533, C797S/L858R).
T3 construct: expressed in transfected cells; host or cells: H1975 (endogenous EGFR knocked out, clone #8)
The assay is described as follows: Cell degradation of EGFR, HTRF assay, H1975-clone#8 (L858R/C797S) cells. The following applies: 16 h treatment; for DC50: EGFR degradation; for Dmax: maximum percentage of degradation.

As a reminder, the IC50 is the concentration that inhibits the measured activity by half. Read a high IC50 as a need for much substance. The term DC50 denotes the midpoint of the concentration-degradation curve. What is called Dmax is the largest share of the target that was removed. High values mean a fuller loss of target, low ones a partial loss of target. In the case of `Cc1cc2cc(n1)-c1c(C)nn(C)c1OC[C@H]1CC[C@H](C1)CN1/C(=N/C2=O)Nc2ccc(N3CCN(C4CCN(c5cc(F)c([C@H]6CCC(=O)NC6=O)c(F)c5)CC4)C[C@H]3C)cc21` [Example 190, (R)-3-(2,6-difluoro-4-(4-((R)-3-methyl-4-((7^1R,7^3S,E)-1^1,1^3,2^6-trimethyl-3-oxo-5^2,5^3-dihydro-1^1H,5^1H-9-oxa-4-aza-5(2,1)-benzo[d]imidazola-2(2,4)-pyridina-1(4,5)-pyrazola-7(1,3)-cyclopentanacyclononaphane-5^6-yl)piperazin-1-yl)piperidin-1-yl)phenyl)piperidine-2,6-dione], in assay [1], the “Imax (%)” value was found to be 100.67% and the IC50 was 1.2 nM. In assay [2], this compound registered a half-maximal degradation concentration (DC50) of 3.11 nM and a Dmax of 88.2%. In assay [3], the “Imax (%)” value is 91.5% and the half-inhibitory concentration (IC50) came to 0.58 nM. In assay [4], this compound had a DC50 of 1.69 nM and a Dmax of 94.9%.
Regarding `COC[C@H]1CN(c2ccc3c(c2)N2C[C@@H]4CC[C@H](COc5c(c(C)nn5C)-c5cc(cc(C)n5)C(=O)/N=C/2N3)C4)CCN1C1CCN(c2ccc(OC3CCC(=O)NC3=O)cc2C)CC1` (stereo partly drawn) [Example 140, 3-(4-(4-((R)-2-(methoxymethyl)-4-((7^1R,7^3S,E)-1^1,1^3,2^6-trimethyl-3-oxo-5^2,5^3-dihydro-1^1H,5^1H-9-oxa-4-aza-5(2,1)-benzo[d]imidazola-2(2,4)-pyridina-1(4,5)-pyrazola-7(1,3)-cyclopentanacyclononaphane-5^6-yl)piperazin-1-yl)piperidin-1-yl)-3-methylphenoxy)piperidine-2,6-dione], the “Imax (%)” value in assay [1] was found to be 101.57%; in assay [3] it was 96.47%. For the same compound, the IC50 in assay [1] came to 1.03 nM; in assay [3], 6.86 nM. Further, the results for the DC50 in assay [2] and in assay [4] were 3.04 nM and 1.94 nM, respectively. For the same compound, the results for the Dmax in assay [2] and in assay [4] were 93.3% and 85.6%, respectively.
In the case of `COC[C@@H]1CN(c2ccc3c(c2)N2CC4CC[C@H](COc5c(cnn5C)-c5cc(cc(C)n5)C(=O)/N=C/2N3)C4)CCN1C1CCN(c2c(F)cc(NC3CCC(=O)NC3=O)cc2F)CC1` (stereo partly drawn) [Example 93, 3-((4-(4-((S)-4-((7^1R,7^3S,E)-1^1,2^6-dimethyl-3-oxo-5^2,5^3-dihydro-1^1H,5^1H-9-oxa-4-aza-5(2,1)-benzo[d]imidazola-2(2,4)-pyridina-1(4,5)-pyrazola-7(1,3)-cyclopentanacyclononaphane-5^6-yl)-2-(methoxymethyl)piperazin-1-yl)piperidin-1-yl)-3,5-difluorophenyl)amino)piperidine-2,6-dione], the results for the “Imax (%)” value in assay [1] and in assay [3] were 100.3% and 96.9%, respectively. For the same compound, the values for the IC50 in assay [1] and in assay [3] were 2 nM and 19.6 nM, respectively. Further, the DC50 in assay [2] stood at 9.09 nM; in assay [4], 7.66 nM. The values for the Dmax in assay [2] and in assay [4] were 77.4% and 83.8%, respectively.
On to `COCCn1nc(C)c2c1OC[C@H]1CC[C@H](C1)CN1/C(=N/C(=O)c3cc(C)nc-2c3)Nc2ccc(N3CCN(C4CCN(c5cc(F)c([C@H]6CCC(=O)NC6=O)c(F)c5)CC4)[C@@H](COC)C3)cc21` [Example 160, (R)-3-(2,6-difluoro-4-(4-((R)-4-((7^1R,7^3S,E)-1^1-(2-methoxyethyl)-1^3,2^6-dimethyl-3-oxo-5^2,5^3-dihydro-1^1H,5^1H-9-oxa-4-aza-5(2,1)-benzo[d]imidazola-2(2,4)-pyridina-1(4,5)-pyrazola-7(1,3)-cyclopentanacyclononaphane-5^6-yl)-2-(methoxymethyl)piperazin-1-yl)piperidin-1-yl)phenyl)piperidine-2,6-dione], for which the entries for the “Imax (%)” value in assay [1] and in assay [3] were 95.87% and 94.19%, respectively. Besides, the IC50 in assay [1] turned out to be 0.59 nM; in assay [3] it was 3.02 nM. Further, the figures for the DC50 in assay [2] and in assay [4] were 3.08 nM and 3.01 nM, respectively. Further, the Dmax is 76.5% in assay [2] and 88.2% in assay [4].
As to `Cc1cc2cc(n1)-c1c(C)nn(C)c1OC[C@H]1CC[C@H](C1)CN1/C(=N/C2=O)Nc2ccc(N3CCC(N(C)C4CN(c5cc(F)c([C@H]6CCC(=O)NC6=O)c(F)c5)C4)CC3)cc21` [Example 142, (R)-3-(2,6-difluoro-4-(3-(methyl(1-((7^1R,7^3S,E)-1^1,1^3,2^6-trimethyl-3-oxo-5^2,5^3-dihydro-1^1H,5^1H-9-oxa-4-aza-5(2,1)-benzo[d]imidazola-2(2,4)-pyridina-1(4,5)-pyrazola-7(1,3)-cyclopentanacyclononaphane-5^6-yl)piperidin-4-yl)amino)azetidin-1-yl)phenyl)piperidine-2,6-dione], the “Imax (%)” value in assay [1] is recorded as 102.03%; in assay [3], 97.8%. In addition, the IC50 came out at 1.42 nM in assay [1] and 4.77 nM in assay [3]. The DC50 in assay [2] came to 7.26 nM; in assay [4], 0.748 nM. Also, the results for the Dmax in assay [2] and in assay [4] were 80.3% and 87.3%, respectively.
For the compound `Cc1cc2cc(n1)-c1c(C)nn(C)c1OC[C@H]1CC[C@H](C1)CN1/C(=N/C2=O)Nc2ccc(N3CCN(CC4CN(c5cc(F)c([C@H]6CCC(=O)NC6=O)c(F)c5)C4)[C@@H](CF)C3)cc21` [Example 210, (R)-3-(2,6-difluoro-4-(3-(((R)-2-(fluoromethyl)-4-((7R,7^3S,E)-1^1,1^3,2^6-trimethyl-3-oxo-5^2,5^3-dihydro-1^1H,5^1H-9-oxa-4-aza-5(2,1)-benzo[d]imidazola-2(2,4)-pyridina-1(4,5)-pyrazola-7(1,3)-cyclopentanacyclononaphane-5^6-yl)piperazin-1-yl)methyl)azetidin-1-yl)phenyl)piperidine-2,6-dione], the “Imax (%)” value in assay [1] amounted to 99.96%; in assay [3], 89.17%. For the same compound, the IC50 was 1.56 nM in assay [1] and 1.04 nM in assay [3]. Also, the DC50 stood at 0.74 nM in assay [2] and 3.72 nM in assay [4]. Further, the results for the greatest degradation seen (Dmax) in assay [2] and in assay [4] were 90.2% and 86.9%, respectively.
Take `Cc1cc2cc(n1)-c1c(C)nn(C)c1OC[C@H]1CC[C@H](C1)CN1/C(=N/C2=O)Nc2ccc(N3CCN([C@H]4CCN(c5cc(F)c([C@H]6CCC(=O)NC6=O)c(F)c5)C4)CC3)cc21` (single isomer, unassigned) [Example 186]: the “Imax (%)” value in assay [1] is on record as 100.56%; in assay [3] it was 92%. Besides, the IC50 in assay [1] came to 2.37 nM; in assay [3], 4.77 nM. Further, the DC50 was 3.82 nM in assay [2] and 2.92 nM in assay [4]. Moreover, the Dmax in assay [2] turned out to be 80%; in assay [4] it was 80.4%.
For `COC[C@@H]1CN(c2ccc3c(c2)N2CC4CC[C@H](COc5c(c(C)nn5C)-c5cc(cc(C)n5)C(=O)/N=C/2N3)C4)CCN1C1CCN(c2c(F)cc(NC3CCC(=O)NC3=O)cc2F)CC1` (stereo partly drawn) [Example 133, 3-((3,5-difluoro-4-(4-((S)-2-(methoxymethyl)-4-((7R,7^3S,E)-1^1,1^3,2^6-trimethyl-3-oxo-5^2,5^3-dihydro-1^1H,5^1H-9-oxa-4-aza-5(2,1)-benzo[d]imidazola-2(2,4)-pyridina-1(4,5)-pyrazola-7(1,3)-cyclopentanacyclononaphane-5^6-yl)piperazin-1-yl)piperidin-1-yl)phenyl)amino)piperidine-2,6-dione], in assay [1], the “Imax (%)” value is recorded as 99.55% and the IC50 amounted to 1.45 nM. In assay [2], this compound came in with a DC50 of 2.36 nM and a Dmax of 85.7%. In assay [3], the “Imax (%)” value is reported as 96.88% and the IC50 is 2.88 nM. In assay [4], this compound registered a DC50 of 2.94 nM and a Dmax of 86.5%.
